IC50 and inhibition data for 3 compounds are collected here from ChEMBL document CHEMBL1148048, “Two new tryptophan-derived alkaloids from the Okinawan marine sponge Aplysina sp” (J Nat Prod, 1994).

≈ marks a conversion by molar mass, not a printed value.

The subject of one test is L1210. The test can be described thus: Cytotoxicity against mouse L1210 cells. The format is functional, cell-based.
Test [1] relates to KB. The test can be described thus: Cytotoxicity against human KB cells at 20 ug/ml. The format is functional.
The subject of test [2] is KB. The test is described as follows: Cytotoxicity against human KB cells. The format is functional, cell-based.

`C/N=C1\NC(=O)/C(=C\c2c[nH]c3ccccc23)N1C` [ISOPLYSIN A] registered an IC50 with L1210 of 11.5 µg/mL (≈ 45.2 µM). In the test on KB [1], this compound came in with an inhibition at 20 µg/mL of 31%.
`C/N=C1\N(C)C(=O)/C(=C\c2c[nH]c3ccccc23)N1C` [METHYLAPLYSINOPSIN]: the half-maximal inhibitory concentration (IC50) in the test with L1210 was 3.5 µg/mL (≈ 13 µM); with KB [2], 6.7 µg/mL (≈ 25 µM).
Regarding `CN1C(=N)N(C)/C(=C/c2c[nH]c3ccccc23)C1=O` [APLYSINOPSIN], the concentration for half-maximal inhibition (IC50) in the test on L1210 came to 2.3 µg/mL (≈ 9.04 µM); in the test with KB [2] it was 6.4 µg/mL (≈ 25.2 µM).
